Test results reported in ChEMBL document CHEMBL3826966, “A chromatography-free isolation of rohitukine from leaves of Dysoxylum binectariferum: Evaluation for in vitro cytotoxicity, Cdk inhibition and physicochemical properties” (Bioorg Med Chem Lett, 2016).

Legend:
[1] = biological target: MAP kinase-activated protein kinase 5 (Homo sapiens) (UniProt Q8IW41); test: Inhibition of human PRAK (1 to 471 residues) assessed as remaining enzyme activity at 50 uM after 30 mins by 33P-ATP filter-binding assay
[2] = biological target: Serine/threonine-protein kinase Chk1 (Homo sapiens) (UniProt O14757); test: Inhibition of human CHK1 (1 to 476 residues) assessed as remaining enzyme activity at 50 uM after 30 mins by 33P-ATP filter-binding assay
[3] = biological target: Glycogen synthase kinase-3 beta (Homo sapiens) (UniProt P49841); test: Inhibition of human GSK3beta (2 to 420 residues) assessed as remaining enzyme activity at 50 uM after 30 mins by 33P-ATP filter-binding assay
[4] = biological target: Serine/threonine-protein kinase tousled-like 1 (Homo sapiens) (UniProt Q9UKI8); test: Inhibition of human TLK1 (1 to 766 residues) assessed as remaining enzyme activity at 50 uM after 30 mins by 33P-ATP filter-binding assay
[5] = biological target: Serine/threonine-protein kinase BRSK2 (Homo sapiens) (UniProt Q8IWQ3); test: Inhibition of human BRSK2 (2 to 674residues) assessed as remaining enzyme activity at 50 uM after 30 mins by 33P-ATP filter-binding assay
[6] = biological target: Casein kinase I isoform delta (Homo sapiens) (UniProt P48730); test: Inhibition of human CK1delta (1 to 415 residues) assessed as remaining enzyme activity at 50 uM after 30 mins by 33P-ATP filter-binding assay
[7] = biological target: Casein kinase II (Homo sapiens) (UniProt P67870+P68400+P19784); test: Inhibition of human CK2 assessed as remaining enzyme activity at 50 uM after 30 mins by 33P-ATP filter-binding assay; assay type: protein-complex assay
[8] = biological target: Dual specificity tyrosine-phosphorylation-regulated kinase 2 (Homo sapiens) (UniProt Q92630); test: Inhibition of human DYRK2 (3 to 528 residues) assessed as remaining enzyme activity at 50 uM after 30 mins by 33P-ATP filter-binding assay
[9] = biological target: Inhibitor of nuclear factor kappa-B kinase subunit epsilon (Homo sapiens) (UniProt Q14164); test: Inhibition of human IKKe (1 to 716 residues) assessed as remaining enzyme activity at 50 uM after 30 mins by 33P-ATP filter-binding assay
[10] = biological target: Homeodomain-interacting protein kinase 2 (Homo sapiens) (UniProt Q9H2X6); test: Inhibition of human HIPK2 (165 to 564 residues) assessed as remaining enzyme activity at 50 uM after 30 mins by 33P-ATP filter-binding assay
[11] = biological target: Serine/threonine-protein kinase PAK 4 (Homo sapiens) (UniProt O96013); test: Inhibition of human PAK4 (2 to 591 residues) assessed as remaining enzyme activity at 50 uM after 30 mins by 33P-ATP filter-binding assay
[12] = biological target: Serine/threonine-protein kinase 26 (Homo sapiens) (UniProt Q9P289); test: Inhibition of human MST4 (2 to 416 residues) assessed as remaining enzyme activity at 50 uM after 30 mins by 33P-ATP filter-binding assay
[13] = biological target: Serine/threonine-protein kinase 16 (Homo sapiens) (UniProt O75716); test: Inhibition of human MPSK1 (1 to 305 residues) assessed as remaining enzyme activity at 50 uM after 30 mins by 33P-ATP filter-binding assay
[14] = biological target: Tyrosine-protein kinase CSK (Homo sapiens) (UniProt P41240); test: Inhibition of human CSK (1 to 450 residues) assessed as remaining enzyme activity at 50 uM after 30 mins by 33P-ATP filter-binding assay
[15] = biological target: Angiopoietin-1 receptor (Homo sapiens) (UniProt Q02763); test: Inhibition of human TIE2 (771 to 1124 residues) assessed as remaining enzyme activity at 50 uM after 30 mins by 33P-ATP filter-binding assay
[16] = biological target: Receptor tyrosine-protein kinase erbB-4 (Homo sapiens) (UniProt Q15303); test: Inhibition of human HER4 (706 to 991 residues) assessed as remaining enzyme activity at 50 uM after 30 mins by 33P-ATP filter-binding assay
[17] = biological target: Insulin-like growth factor 1 receptor (Homo sapiens) (UniProt P08069); test: Inhibition of human IGF1R (954 to 1367 residues) assessed as remaining enzyme activity at 50 uM after 30 mins by 33P-ATP filter-binding assay
[18] = Stability in SGF solution at 120 ug/ml after 8 hrs by RP-HPLC analysis; assay type: physicochemical; details: simulated gi fluid
[19] = Stability in SIF solution assessed as reduction in compound AUC at 120 ug/ml after 8 hrs by RP-HPLC analysis; assay type: physicochemical; details: read-out: Drug degradation
[20] = biological target: MAP kinase-activated protein kinase 2 (Homo sapiens) (UniProt P49137); test: Inhibition of human MAPKAPK2 assessed as remaining enzyme activity at 50 uM after 30 mins by 33P-ATP filter-binding assay
ASPC1 = test: Cytotoxicity against human AsPC1 cells assessed as cell growth inhibition after 48 hrs by MTT assay; assay type: functional; details: ASPC1, 48 h
PSN1 = test: Cytotoxicity against human PSN1 cells assessed as cell growth inhibition after 48 hrs by MTT assay; assay type: functional; details: PSN1, 48 h
MDA-MB-468 = test: Cytotoxicity against human MDA-MB-468 cells assessed as cell growth inhibition after 48 hrs by MTT assay; assay type: functional; details: MDA-MB-468, 48 h
[21] = Cytotoxicity against human Hs578T cells assessed as cell growth inhibition after 48 hrs by MTT assay; assay type: functional; details: Hs-578T
[22] = Cytotoxicity against human SNB75 cells assessed as cell growth inhibition after 48 hrs by MTT assay; assay type: functional; details: SNB-75, 48 h
[23] = biological target: Rho-associated protein kinase 2 (Rattus norvegicus) (UniProt Q62868); test: Inhibition of rat ROCK2 (2 to 543 residues) assessed as remaining enzyme activity at 50 uM after 30 mins by 33P-ATP filter-binding assay

Sequence of Glycogen synthase kinase-3 beta (Homo sapiens) (P49841 whole entry, looked up, the tested form may be a part): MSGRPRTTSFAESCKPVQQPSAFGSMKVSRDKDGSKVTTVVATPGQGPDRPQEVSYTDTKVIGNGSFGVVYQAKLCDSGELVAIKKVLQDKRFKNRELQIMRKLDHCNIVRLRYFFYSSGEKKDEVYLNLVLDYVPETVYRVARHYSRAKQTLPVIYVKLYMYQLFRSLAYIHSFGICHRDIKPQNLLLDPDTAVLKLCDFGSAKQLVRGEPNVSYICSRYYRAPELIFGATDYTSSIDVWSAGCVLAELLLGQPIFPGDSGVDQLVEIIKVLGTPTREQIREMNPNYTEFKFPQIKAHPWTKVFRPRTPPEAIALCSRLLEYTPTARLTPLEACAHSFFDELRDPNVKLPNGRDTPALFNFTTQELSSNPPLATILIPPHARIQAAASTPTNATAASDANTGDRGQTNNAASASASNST
Sequence of MAP kinase-activated protein kinase 2 (Homo sapiens) (P49137 whole entry, looked up): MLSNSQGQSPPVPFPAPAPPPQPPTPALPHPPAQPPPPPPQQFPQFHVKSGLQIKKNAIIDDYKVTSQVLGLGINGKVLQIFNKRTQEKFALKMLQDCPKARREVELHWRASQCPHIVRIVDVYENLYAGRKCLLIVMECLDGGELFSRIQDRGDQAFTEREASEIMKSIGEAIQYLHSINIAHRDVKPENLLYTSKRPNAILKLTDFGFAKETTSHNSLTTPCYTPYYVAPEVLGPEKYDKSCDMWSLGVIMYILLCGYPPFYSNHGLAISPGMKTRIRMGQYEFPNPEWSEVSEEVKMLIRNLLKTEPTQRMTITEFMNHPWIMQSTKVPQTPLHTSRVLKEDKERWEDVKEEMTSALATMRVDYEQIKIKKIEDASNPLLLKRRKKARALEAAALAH
Sequence of Angiopoietin-1 receptor (Homo sapiens) (Q02763 whole entry, the tested form may be a part): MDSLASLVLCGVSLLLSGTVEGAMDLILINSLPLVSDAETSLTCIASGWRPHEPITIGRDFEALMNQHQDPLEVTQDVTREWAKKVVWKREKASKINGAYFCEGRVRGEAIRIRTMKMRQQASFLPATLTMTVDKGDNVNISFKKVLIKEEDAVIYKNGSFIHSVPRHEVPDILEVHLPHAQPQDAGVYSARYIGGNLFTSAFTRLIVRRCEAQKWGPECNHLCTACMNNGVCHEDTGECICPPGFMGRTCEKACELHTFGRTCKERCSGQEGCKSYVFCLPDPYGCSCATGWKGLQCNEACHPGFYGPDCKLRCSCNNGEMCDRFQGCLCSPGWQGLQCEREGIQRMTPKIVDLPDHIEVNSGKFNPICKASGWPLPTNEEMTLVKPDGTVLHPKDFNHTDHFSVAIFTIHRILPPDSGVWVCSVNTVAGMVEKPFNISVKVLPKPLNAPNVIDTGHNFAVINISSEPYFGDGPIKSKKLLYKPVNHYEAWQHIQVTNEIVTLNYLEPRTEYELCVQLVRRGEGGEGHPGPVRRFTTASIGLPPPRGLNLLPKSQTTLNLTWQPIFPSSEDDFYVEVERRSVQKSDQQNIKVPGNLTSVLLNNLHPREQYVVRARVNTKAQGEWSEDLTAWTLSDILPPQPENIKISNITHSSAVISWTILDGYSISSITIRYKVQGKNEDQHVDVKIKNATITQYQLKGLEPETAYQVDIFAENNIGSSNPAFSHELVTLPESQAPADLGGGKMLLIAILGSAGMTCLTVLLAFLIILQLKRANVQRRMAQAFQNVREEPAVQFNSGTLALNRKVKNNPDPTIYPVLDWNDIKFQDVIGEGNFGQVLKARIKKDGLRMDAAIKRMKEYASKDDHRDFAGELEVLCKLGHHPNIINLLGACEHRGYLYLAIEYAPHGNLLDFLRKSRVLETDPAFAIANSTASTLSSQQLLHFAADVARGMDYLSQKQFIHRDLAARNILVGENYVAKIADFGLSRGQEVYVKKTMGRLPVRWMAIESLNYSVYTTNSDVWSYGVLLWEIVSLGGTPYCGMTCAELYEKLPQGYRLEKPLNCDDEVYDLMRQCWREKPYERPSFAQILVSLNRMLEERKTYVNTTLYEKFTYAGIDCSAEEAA
Sequence of Serine/threonine-protein kinase tousled-like 1 (Homo sapiens) (Q9UKI8 whole entry, the tested form may be a part): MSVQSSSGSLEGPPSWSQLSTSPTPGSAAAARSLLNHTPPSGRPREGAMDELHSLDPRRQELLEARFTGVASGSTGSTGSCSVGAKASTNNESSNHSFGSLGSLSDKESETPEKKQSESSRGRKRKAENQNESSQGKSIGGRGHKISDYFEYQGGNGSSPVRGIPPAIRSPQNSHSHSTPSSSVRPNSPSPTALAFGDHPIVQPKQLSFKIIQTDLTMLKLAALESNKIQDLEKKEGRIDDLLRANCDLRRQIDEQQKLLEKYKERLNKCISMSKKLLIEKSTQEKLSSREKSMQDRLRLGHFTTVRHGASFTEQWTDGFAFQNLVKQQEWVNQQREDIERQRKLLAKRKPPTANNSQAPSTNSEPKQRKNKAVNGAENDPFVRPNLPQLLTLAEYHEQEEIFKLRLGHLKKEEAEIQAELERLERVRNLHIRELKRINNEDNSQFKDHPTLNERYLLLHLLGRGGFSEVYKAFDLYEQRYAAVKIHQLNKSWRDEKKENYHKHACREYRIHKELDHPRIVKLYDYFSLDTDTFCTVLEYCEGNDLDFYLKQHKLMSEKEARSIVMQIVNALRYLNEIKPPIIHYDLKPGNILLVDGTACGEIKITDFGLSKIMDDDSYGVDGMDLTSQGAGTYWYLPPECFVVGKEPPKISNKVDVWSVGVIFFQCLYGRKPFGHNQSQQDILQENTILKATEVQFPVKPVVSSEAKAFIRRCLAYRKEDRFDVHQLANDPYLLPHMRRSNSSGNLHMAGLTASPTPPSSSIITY
Sequence of Receptor tyrosine-protein kinase erbB-4 (Homo sapiens) (Q15303 whole entry, the tested form may be a part): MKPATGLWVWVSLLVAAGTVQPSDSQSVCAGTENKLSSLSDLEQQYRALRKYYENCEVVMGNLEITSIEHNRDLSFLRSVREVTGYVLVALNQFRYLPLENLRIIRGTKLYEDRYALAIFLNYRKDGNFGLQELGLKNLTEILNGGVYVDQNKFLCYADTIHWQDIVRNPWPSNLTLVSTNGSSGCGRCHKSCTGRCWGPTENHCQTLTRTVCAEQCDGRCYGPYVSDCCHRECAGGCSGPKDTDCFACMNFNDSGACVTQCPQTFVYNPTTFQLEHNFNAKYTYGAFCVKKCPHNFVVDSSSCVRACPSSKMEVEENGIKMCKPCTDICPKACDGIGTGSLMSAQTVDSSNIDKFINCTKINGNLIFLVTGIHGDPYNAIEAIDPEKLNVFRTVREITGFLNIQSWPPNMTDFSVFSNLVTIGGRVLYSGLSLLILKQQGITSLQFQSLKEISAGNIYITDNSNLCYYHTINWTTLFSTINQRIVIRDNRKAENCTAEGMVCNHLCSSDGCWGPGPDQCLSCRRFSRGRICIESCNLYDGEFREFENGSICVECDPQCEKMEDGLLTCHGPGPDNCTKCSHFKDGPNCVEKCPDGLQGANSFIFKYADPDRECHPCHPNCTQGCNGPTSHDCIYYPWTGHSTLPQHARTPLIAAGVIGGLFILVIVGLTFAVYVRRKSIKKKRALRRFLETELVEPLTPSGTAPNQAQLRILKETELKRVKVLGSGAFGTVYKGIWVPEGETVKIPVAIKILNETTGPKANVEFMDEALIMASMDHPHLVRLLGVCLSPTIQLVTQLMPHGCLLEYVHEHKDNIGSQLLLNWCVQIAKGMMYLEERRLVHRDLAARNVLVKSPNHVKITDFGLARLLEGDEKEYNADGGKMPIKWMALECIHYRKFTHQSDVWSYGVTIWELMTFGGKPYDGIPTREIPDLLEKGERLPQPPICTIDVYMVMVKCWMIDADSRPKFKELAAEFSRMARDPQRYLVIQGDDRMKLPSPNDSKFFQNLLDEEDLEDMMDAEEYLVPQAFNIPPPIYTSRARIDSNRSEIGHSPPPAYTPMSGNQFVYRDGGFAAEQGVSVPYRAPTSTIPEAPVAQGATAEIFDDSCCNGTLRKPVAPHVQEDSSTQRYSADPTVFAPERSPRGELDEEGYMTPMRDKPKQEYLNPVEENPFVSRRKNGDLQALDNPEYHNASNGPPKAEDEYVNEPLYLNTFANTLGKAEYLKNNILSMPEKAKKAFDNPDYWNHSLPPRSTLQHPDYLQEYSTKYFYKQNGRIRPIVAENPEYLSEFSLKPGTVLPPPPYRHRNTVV
Sequence of Serine/threonine-protein kinase BRSK2 (Homo sapiens) (Q8IWQ3 whole entry, the tested form may be a part, canonical isoform): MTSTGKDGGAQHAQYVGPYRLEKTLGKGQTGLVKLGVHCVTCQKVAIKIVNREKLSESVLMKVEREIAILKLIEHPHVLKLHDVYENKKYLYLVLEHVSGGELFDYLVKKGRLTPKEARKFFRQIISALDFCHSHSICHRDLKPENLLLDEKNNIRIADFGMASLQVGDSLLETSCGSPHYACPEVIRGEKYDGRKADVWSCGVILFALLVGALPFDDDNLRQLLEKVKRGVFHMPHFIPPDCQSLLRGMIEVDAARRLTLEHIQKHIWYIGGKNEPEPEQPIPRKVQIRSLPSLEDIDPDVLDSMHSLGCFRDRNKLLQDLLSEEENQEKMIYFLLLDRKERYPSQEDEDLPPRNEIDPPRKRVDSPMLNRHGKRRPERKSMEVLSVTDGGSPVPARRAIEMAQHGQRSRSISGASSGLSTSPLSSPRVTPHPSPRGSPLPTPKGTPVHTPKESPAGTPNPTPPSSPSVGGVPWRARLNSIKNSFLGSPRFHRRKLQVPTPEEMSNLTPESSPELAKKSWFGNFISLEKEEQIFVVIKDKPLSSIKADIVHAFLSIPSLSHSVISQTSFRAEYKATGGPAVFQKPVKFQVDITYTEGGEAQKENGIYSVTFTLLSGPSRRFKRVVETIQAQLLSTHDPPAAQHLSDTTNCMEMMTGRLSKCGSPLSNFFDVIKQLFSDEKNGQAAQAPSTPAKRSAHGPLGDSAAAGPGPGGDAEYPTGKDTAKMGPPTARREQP
Sequence of Serine/threonine-protein kinase 16 (Homo sapiens) (O75716 whole entry, the tested form may be a part): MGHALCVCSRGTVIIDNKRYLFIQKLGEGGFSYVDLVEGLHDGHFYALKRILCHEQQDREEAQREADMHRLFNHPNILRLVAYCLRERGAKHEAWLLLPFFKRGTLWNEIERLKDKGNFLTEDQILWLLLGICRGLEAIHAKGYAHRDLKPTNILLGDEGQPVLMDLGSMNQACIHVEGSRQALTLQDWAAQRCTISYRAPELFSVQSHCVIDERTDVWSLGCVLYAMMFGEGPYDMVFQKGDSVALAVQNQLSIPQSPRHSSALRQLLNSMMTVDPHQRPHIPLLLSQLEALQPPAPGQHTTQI

`Cc1cc(=O)c2c(O)cc(O)c([C@H]3CCN(C)C[C@H]3O)c2o1` [ROHITUKINE] showed an Activity [1] of 72%, an Activity [2] of 52% and an Activity [3] of 66%. It also gave an Activity [4] of 109%, an Activity [5] of 65% and an Activity [6] of 78%. It also gave an Activity [7] of 90%, an Activity [8] of 84% and an Activity [9] of 69%. For the same molecule, the Activity [10] was 76%, the Activity [11] was 83% and the Activity [12] was 68%. The Activity [13] was 87%, the Activity [14] was 79% and the Activity [15] was 80%. The Activity [16] was 79%, the Activity [17] was 113% and the Stability [18] was “Stable”. For the same molecule, the degraded at 8 h, 120 ug/ml [19] was 2.42%, the Activity [20] was 52% and the GI50 (ASPC1) was 21 µM. The GI50 (PSN1) was 23 µM, the GI50 (MDA-MB-468) was 17 µM and the GI50 [21] was 20 µM. The GI50 [22] was 22 µM and the Activity [23] was 64%.
